In US10870634B2, “Histone demethylase inhibitors” (CELGENE QUANTICEL RESEARCH, INC., priority 2016, dated 2020):

Biological target: T1, JMJD2C (Homo sapiens, UniProt Q9H3R0)
T1 construct: purchased BPS Bioscience 50105
T1 sequence (Q9H3R0 2-372): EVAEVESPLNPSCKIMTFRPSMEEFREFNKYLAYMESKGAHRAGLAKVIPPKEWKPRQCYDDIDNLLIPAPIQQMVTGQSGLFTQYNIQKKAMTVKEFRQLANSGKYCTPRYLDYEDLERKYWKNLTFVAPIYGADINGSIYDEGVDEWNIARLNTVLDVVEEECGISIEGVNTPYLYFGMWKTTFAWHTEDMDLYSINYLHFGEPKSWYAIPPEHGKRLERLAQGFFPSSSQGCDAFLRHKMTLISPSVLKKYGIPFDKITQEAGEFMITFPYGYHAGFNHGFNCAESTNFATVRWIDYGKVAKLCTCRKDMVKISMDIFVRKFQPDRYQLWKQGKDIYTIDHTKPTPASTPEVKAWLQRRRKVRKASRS
Assay: JMJD2C in vitro enzyme inhibition assay (TR-FRET)
Assay type: biochemical
Conditions: 0.3 nM JMJD2C, 300 nM H3K9me3-biotin peptide, 2 μM alpha-ketoglutaric acid
Source text: This assay determines the ability of a test compound to inhibit Jarid1B, JMJD2C and JMJD3 demethylase activity. Baculovirus-expressed Jarid1B (GenBank Accession # NM-006618, AA 2-751) was purchased from BPS Bioscience (Cat #50121) or custom made by MolecularThroughput. Baculovirus-expressed JMJD2C (GenBank Accession # BC143571, AA 2-372) was purchased from BPS Bioscience (Cat #50105). Baculovirus-expressed JMJD3 (GenBank Accession # NM_001080424, AA1043-end) was purchased from BPS Bioscience (Cat #50115).
The ability of test compounds to inhibit the activity of JMJD2C was determined in 384-well plate format under the following reaction conditions: 0.3 nM JMJD2C, 300 nM H3K9me3-biotin labeled peptide (Anaspec cat #464360), 2 μM alpha-ketoglutaric acid in assay buffer of 50 mM HEPES, pH 7.3, 0.005% Brij35, 0.5 mM TCEP, 0.2 mg/ml BSA, 50 μM sodium L-ascorbate, and 2 μM ammonium ironll sulfate. Reaction product was determined quantitatively by TR-FRET after the addition of detection reagent Phycolink Streptavidin-allophycocyanin (Prozyme) and Europium-anti-di-methylated histone H3 lysine 9 (H3K9me2) antibody (PerkinElmer) in the presence of 5 mM EDTA in LANCE detection buffer (PerkinElmer) at a final concentration of 50 nM and 1 nM, respectively.
The assay reaction was initiated by the following: 2 μl of the mixture of 900 nM H3K9me3-biotin labeled peptide and 6 μM alpha-ketoglutaric acid with 2 μl of 11-point serial diluted inhibitor in 3% DMSO were added to each well of the plate, followed by the addition of 2 μl of 0.9 nM JMJD2C to initiate the reaction. […] Plates were read by EnVisionMultilabel Reader in TR-FRET mode (excitation at 320 nm, emission at 615 nm and 665 nm) after 1 hr incubation at RT. A ratio was calculated (665/615) for each well and fitted to determine inhibition constant (IC50).
The ability to inhibit demethylase activity was quantified and the respective IC50 value was determined for substituted triazolylpyridine derivative compounds. […]

| Structure (SMILES) | IC50 |
| --- | --- |
| Fc1cnccc1-c1nn[nH]c1C(F)(F)F [Example 1, 3-fluoro-4-[5-(trifluoromethyl)-1H-1,2,3-triazol-4-yl]pyridine] | > 10 µM |
| Fc1ccc(Cl)cc1Nc1cnccc1-c1nn[nH]c1C(F)(F)F [Example 2, N-(5-chloro-2-fluorophenyl)-4-[5-(trifluoromethyl)-1H-1,2,3-triazol-4-yl]pyridin-3-amine] | > 10 µM |
| FC(F)(F)c1[nH]nnc1-c1ccncc1NCC1CCCc2ccccc21 (stereo not drawn) [Example 3, N-[(1,2,3,4-tetrahydronaphthalen-1-yl)methyl]-4-[5-(trifluoromethyl)-1H-1,2,3-triazol-4-yl]pyridine-3-amine] | > 10 µM |
